{
  "source": "patent US20210401730A1",
  "about": "“USE OF EXTRACTS OF AGAVE FOR A HAIR APPLICATION” (priority 2017, published 2021)",
  "key": {"[1]": {"system": "human umbilical vein endothelial cells (HUVEC)", "assay": "Formation of microtubules (pseudo-tubes) by endothelial cells on matrigel", "format": "cell-based", "details": "for Results in % (formation of pseudo-tubes): 6 hours, control medium = 100", "method": "In this experiment, the cells are human umbilical vein endothelial cells (HUVEC) cultured in M200 medium (Invitrogen M200500) on matrigel (BD Biosciences 354234) for 6 hours. The cells are either in the medium (control medium) or treated by suramin (negative control) or treated by VEGF (positive control) or treated by Metlin® or Metlos® inulins (at 0.1%). After 6 hours of incubation, the pseudo-tubes formed are observed under the microscope and images are taken at random to be subsequently quantified (total surface of the network) by image analysis."}, "[2]": {"system": "EPCs (circulating endothelial progenitor cells) originating from human umbilical cord blood", "assay": "Migration of endothelial progenitor cells through insert membrane", "format": "cell-based", "details": "C+ medium + VEGF 10 ng/ml, 5 hours", "method": "The study was carried out on EPCs (circulating endothelial progenitor cells) originating from human umbilical cord blood, cultured in EGM-2 medium (Endothelial Growth medium-2).\nBefore the treatment, the cells are starved in 0.2% EBM-2 medium of fetal calf serum (FCS). The cells are subsequently seeded in an insert containing EGM-2 medium with 0.2% FCS, immersed in a well containing the treatment: either EGM-2 medium 0.2% FCS (negative control), or EGM-2 medium 0.2% FCS plus VEGF at 10 ng/ml (positive control), or EGM-2 medium 0.2% FCS plus the Metlin® or Metlos® inulins at 0.5% or 1%. After 5 hours of incubation, the cells inside the inserts are eliminated and those that have migrated to the other side of the insert membrane are fixed with 4% paraformaldehyde for 10 min. The cells that have migrated are subsequently counted."}},
  "note": "Read-outs that look alike come from different tables or passages of the source.",
  "data": [
    {"compound": "Cc1ccc(C(=O)Nc2ccc(S(=O)(=O)O)c3cc(S(=O)(=O)O)cc(S(=O)(=O)O)c23)cc1NC(=O)c1cccc(NC(=O)Nc2cccc(C(=O)Nc3cc(C(=O)Nc4ccc(S(=O)(=O)O)c5cc(S(=O)(=O)O)cc(S(=O)(=O)O)c45)ccc3C)c2)c1", "note": "[Suramin, suramin]", "values": [
      {"measurement": "Number of branchings", "setting": "[1]; C− 20 μM, 6 hours of incubation", "result": 0},
      {"measurement": "Results in % (formation of pseudo-tubes)", "setting": "[1]; C− 20 μM", "result": 0, "unit": "%"}
    ]},
    {"compound": "VEGF", "values": [
      {"measurement": "Number of cells (migrated)", "setting": "[2]", "result": 417},
      {"measurement": "Results relative to C−", "setting": "[2]", "result": 181, "unit": "%"},
      {"measurement": "Number of branchings", "setting": "[1]", "result": 18},
      {"measurement": "Results in % (formation of pseudo-tubes)", "setting": "[1]; C+ 50 ng/ml", "result": 140, "unit": "%"}
    ]}
  ]
}
